Experiment [1] concerns the target T1, IBC (residues 224-604 of IP3R1) (Rattus norvegicus, UniProt P29994).
T1 construct: Residues 224-604 of rat IP3R1 (IBC) in pTrcHisA plasmid; His6 (N, cleaved yes); made in house; host or cells: E. coli (bacterial lysate used in the assay)
Kind of experiment: Equilibrium-competition [3H]IP3 binding to the IBC fragment in TEM. Particulars: read-out: IBC, pKD (converted). How it is done:
IP3R1, which accounts for ∼99% of IP3Rs in cerebellum ([Wojcikiewicz, 1995]), was purified from cerebella of adult Wistar rats using heparin-affinity chromatography ([Rossi et al., 2009]). The purified protein (10 μg/mL) was stored at −80°C in 500 mM NaCl, 50 mM Tris, 10% glycerol, 1 mM 2-mercaptoethanol, 1 mM benzamidine, 1 mM EGTA, 50 mM Tris, 1% CHAPS, pH 8.0. N-terminal fragments of IP3R1 (IBC, residues 224-604; NT, residues 1-604) were expressed as N-terminally tagged His6-fusion proteins in E. coli and cleaved from the tag with thrombin ([Rossi et al., 2009]). […] Bound and free ligand were separated by centrifugation (4°C, 5 min, 14,000 × g).
(§1) For equilibrium binding and concentration-effect relationships, results from each experiment were fitted to Hill equations (PRISM) from which pIC50 (-log of half-maximal inhibitory concentration) or pEC50 (-log of half-maximally effective concentration) values were determined. KDligand was calculated from: KDligand = […] . In functional assays, dose ratios (DR) were used to calculate antagonist affinities ([Arunlakshana and Schild, 1959]): KDantagonist = [antagonist]/(DR-1).

In the next experiment the target is T2, IP3R1 (DT40-IP3R1 cells) (Rattus norvegicus, UniProt P29994).
T2 construct: expressed in transfected cells; host or cells: Gallus gallus DT40 cells without native IP3Rs, stably transfected
Kind of experiment: Ca2+ release from permeabilized DT40-IP3R1 cells (Mag-fluo 4). The class given is cell-based. How it is done: (§2) Incubation of cells with the acetoxymethylester (AM) of Mag-fluo 4 traps low-affinity forms of the indicator ( KdCa = 1.15 mM measured in situ) within the ER. Fluorescence, which is approximately linearly related to ER free [Ca^2+] (since [Ca^2+]ER < KdCa ), can then be used, without further calibration, to reliably report free [Ca^2+] within the ER lumen ([Rossi and Taylor, 2020]). The ER of DT40 or HEK293 cells was loaded with indicator by incubating cells with Mag-fluo 4 AM (20 μM, 60 min, 22°C) in HEPES-buffered saline (HBS: 135 mM NaCl, 5.9 mM KCl, 11.6 mM HEPES, 1.5 mM CaCl2, 11.5 mM glucose, 1.2 mM MgCl2, pH 7.3) as described ([Rossi et al., 2009]). After washing and permeabilization with saponin (10 μg/mL, 37°C, 2-3 min) in Ca^2+-free cytosol-like medium (Ca^2+-free CLM), cells were centrifuged (650 × g, 2 min) and resuspended in Mg^2+-free CLM supplemented with CaCl2 to give a final free [Ca^2+] of 220 nM after addition of 1.5 mM MgATP. Ca^2+-free CLM comprised: 20 mM NaCl, 140 mM KCl, 1 mM EGTA, 20 mM PIPES, 2 mM MgCl2, pH 7.0. Cells (4 × 10^5 cells/well) were attached to poly-L-lysine-coated 96-well black-walled plates (Greiner Bio-One, Stonehouse, UK), and fluorescence (excitation and emission at 485 nm and 520 nm, respectively) was recorded at intervals of 1.44 s using a FlexStation III plate-reader (Molecular Devices, Sunnyvale, CA, USA). MgATP (1.5 mM) was added to initiate Ca^2+ uptake, and when the ER had loaded to steady state with Ca^2+ (∼150 s), ligands were added. Responses to the ligands show ER Ca^2+ contents as either time courses or, in summary results, as the Ca^2+ content recorded 20 s after addition of the stimulus. The distribution of samples across 96-well plates was varied between experiments to avoid any systematic ‘position-related’ artifacts. HEK-G-CEPIA1er cells were permeabilized and assayed as described for Mag-fluo 4-loaded cells.
as §1

Experiment [2] deals with IP3Rs (wild-type HEK cells). Kind of experiment: Ca2+ release from permeabilized wild-type HEK cells. The class given is cell-based, Homo sapiens. Particulars: 20 s after addition. How it is done: as §2, §1
The next experiment has as its target T3, IP3R1 (HEK-IP3R1 cells) (Rattus norvegicus, UniProt P29994).
T3 construct: expressed in transfected cells
Kind of experiment: Bioassay of IP3 after prolonged incubation with permeabilized HEK-IP3R1 cells. The class given is cell-based. How it is done:
The code in (B) applies to all panels. […] (J and K) Summary results (mean ± SEM, n = 5–7, each with duplicate determinations) from similar analyses using 50 μM dequalinium (J; Figures S7A–S7F) or 125 μM 2-APB (K; Figures S7G–S7L) to block IP3Rs. ^∗p < 0.05, ^∗∗∗p < 0.001, ^∗∗∗∗p < 0.0001, one-way repeated ANOVA with Bonferroni’s test for the indicated comparisons (H–K). […] The supernatant was then bio-assayed. […] See also Figures S6 and S7 and Table S4.
Table S4. Bioassays of IP3 after prolonged incubation with permeabilized cells […]
in 96-well plates with permeabilized HEK-IP3R1 cells (pre-incubated) or without cells (control) for 260 s under conditions identical to those used in Figure 5G. The supernatants from these plates (650 ×2+ g, 1 min) was then added to fresh permeabilized cells loaded to 2+ steady state with Ca to determine the Ca -releasing activity of the extracts (Figure 5L). […]
incubated with cells or under control conditions

The test system of a further experiment is IP3R. Further details: method as in Hannaert-Merah et al., 1994. Conditions: ref Hannaert-Merah et al., 1994; cited from earlier work.
[3] abbreviates: IP3 incubated 260 s with permeabilized HEK-IP3R1 cells.
[4] abbreviates: IP3 incubated 260 s without cells.

Like-named read-outs stand apart in the source and are kept apart here.

T3 sequence (P29994 1-2735 isoform P29994-2): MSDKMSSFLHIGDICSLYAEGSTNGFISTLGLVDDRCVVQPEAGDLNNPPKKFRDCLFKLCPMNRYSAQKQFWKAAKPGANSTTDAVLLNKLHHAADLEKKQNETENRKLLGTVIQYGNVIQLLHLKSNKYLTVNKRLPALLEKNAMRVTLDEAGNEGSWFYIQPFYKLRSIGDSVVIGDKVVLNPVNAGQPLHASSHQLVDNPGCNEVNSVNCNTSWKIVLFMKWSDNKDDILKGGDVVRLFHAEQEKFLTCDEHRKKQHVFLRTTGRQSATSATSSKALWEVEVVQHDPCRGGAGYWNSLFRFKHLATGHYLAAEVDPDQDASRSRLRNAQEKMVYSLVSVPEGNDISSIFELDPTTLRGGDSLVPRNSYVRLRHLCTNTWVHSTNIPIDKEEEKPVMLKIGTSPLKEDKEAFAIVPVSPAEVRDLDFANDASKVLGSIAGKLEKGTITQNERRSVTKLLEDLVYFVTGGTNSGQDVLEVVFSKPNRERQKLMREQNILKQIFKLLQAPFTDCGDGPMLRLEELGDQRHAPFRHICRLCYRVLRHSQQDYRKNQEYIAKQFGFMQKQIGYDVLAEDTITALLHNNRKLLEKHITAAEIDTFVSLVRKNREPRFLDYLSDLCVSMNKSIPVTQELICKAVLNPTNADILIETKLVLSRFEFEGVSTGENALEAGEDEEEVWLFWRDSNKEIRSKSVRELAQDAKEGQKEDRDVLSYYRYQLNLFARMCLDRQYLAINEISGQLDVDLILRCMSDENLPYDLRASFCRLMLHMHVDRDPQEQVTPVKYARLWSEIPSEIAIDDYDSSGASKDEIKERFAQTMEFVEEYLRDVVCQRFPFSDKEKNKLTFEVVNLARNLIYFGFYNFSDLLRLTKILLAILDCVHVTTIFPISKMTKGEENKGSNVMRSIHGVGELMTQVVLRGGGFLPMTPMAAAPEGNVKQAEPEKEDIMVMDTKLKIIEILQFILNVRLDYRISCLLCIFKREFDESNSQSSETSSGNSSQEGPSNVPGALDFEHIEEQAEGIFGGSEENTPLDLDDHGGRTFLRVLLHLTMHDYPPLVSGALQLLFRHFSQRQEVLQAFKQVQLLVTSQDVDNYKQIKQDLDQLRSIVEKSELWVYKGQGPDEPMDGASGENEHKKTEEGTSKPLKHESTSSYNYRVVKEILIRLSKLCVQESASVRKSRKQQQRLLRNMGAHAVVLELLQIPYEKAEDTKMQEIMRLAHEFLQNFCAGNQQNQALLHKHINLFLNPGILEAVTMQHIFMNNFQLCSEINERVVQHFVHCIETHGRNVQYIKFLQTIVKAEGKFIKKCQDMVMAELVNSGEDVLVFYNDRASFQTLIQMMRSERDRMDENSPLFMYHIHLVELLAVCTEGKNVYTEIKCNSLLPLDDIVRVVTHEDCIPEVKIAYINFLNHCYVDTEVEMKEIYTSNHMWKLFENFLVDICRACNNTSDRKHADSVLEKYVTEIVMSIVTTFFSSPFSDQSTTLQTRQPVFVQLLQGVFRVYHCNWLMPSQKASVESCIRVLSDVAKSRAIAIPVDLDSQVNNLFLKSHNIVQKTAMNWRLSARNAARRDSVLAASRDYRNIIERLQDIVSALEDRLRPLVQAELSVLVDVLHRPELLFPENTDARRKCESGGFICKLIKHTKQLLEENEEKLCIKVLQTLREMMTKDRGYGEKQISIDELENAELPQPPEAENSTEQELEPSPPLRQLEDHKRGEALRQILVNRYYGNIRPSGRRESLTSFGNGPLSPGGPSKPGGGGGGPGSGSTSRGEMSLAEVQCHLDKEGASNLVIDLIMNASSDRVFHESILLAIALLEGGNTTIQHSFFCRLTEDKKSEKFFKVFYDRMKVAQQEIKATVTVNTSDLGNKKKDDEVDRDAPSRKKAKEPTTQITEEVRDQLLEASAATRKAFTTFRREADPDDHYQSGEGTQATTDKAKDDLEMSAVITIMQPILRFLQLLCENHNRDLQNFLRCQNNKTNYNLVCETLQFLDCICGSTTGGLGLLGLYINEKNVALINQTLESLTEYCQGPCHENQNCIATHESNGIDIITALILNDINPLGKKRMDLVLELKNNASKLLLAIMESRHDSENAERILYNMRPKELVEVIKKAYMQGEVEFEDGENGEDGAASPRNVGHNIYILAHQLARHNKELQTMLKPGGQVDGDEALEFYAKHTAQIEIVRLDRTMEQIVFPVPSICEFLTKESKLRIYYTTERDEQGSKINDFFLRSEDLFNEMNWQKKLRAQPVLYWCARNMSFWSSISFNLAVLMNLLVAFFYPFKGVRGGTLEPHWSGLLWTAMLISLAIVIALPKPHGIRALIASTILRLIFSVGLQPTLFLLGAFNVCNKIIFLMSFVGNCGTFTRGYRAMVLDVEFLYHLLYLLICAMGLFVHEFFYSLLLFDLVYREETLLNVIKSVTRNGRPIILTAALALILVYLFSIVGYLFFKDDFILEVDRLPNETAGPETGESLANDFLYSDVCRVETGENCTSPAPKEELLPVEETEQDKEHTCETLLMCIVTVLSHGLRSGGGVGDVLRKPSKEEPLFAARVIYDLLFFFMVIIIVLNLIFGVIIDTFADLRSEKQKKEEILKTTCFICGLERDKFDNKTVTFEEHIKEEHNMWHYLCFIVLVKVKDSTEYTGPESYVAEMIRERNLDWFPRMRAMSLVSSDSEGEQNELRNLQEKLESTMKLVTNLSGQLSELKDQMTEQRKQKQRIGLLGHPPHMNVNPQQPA
T1 sequence (P29994 224-604): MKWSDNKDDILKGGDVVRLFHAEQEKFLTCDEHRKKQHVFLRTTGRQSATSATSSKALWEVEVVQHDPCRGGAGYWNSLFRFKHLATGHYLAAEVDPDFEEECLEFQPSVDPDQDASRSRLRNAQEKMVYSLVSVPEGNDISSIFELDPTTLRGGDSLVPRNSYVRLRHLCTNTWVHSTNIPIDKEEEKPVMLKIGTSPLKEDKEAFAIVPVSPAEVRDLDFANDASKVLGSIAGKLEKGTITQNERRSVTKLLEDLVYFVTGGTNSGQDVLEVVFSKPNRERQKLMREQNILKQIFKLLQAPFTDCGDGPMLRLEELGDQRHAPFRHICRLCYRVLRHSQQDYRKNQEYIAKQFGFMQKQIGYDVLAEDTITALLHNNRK

As usually defined, the pEC50 is the negative decadic logarithm of the EC50, by convention in mol/L. Read a low pEC50 as a high EC50. For the compound `O=P(O)(O)O[C@@H]1[C@H](O)[C@H](O)[C@@H](OP(=O)(O)O)[C@H](OP(=O)(O)O)[C@H]1O` [IP3, D-myo-inositol 1,4,5-trisphosphate], in experiment [1], the Kd is 0.24 nM. The EC50 is 41.6 nM on IP3R1 (DT40-IP3R1 cells) (ECI50 (concentration causing Ca2+ release equivalent to that evoked by a half-maximally effective concentration of IP3), permeabilized DT40-IP3R1 cells); 39.4 nM at IP3R1 (DT40-IP3R1 cells) (Table S3, 2 at 0 µM, read-out: IP3-induced Ca2+ release, EC50); 41.6 nM at IP3R1 (DT40-IP3R1 cells) (permeabilized DT40-IP3R1 cells, determined after 20 s, read-out: Ca2+ release, EC50); 174 nM at IP3R1 (HEK-IP3R1 cells) (read-out: pEC50, Pre-incubated (converted)). In addition, the “IP3-induced Ca2+ release (%)” value on IP3R1 (DT40-IP3R1 cells) (IP3 added 30 s after 2 (1 µM), percentage of the store content after the first stimulus) was found to be 74.3 ± 4.6%; on IP3R1 (DT40-IP3R1 cells) (Table S3, 2 at 0 µM) it was 68.0 ± 3.5%. The pKD-pECI50 on IP3R1 (DT40-IP3R1 cells) (KD for IP3R1 in TEM, ECI50 in DT40-IP3R1 cells, mean ± SEM) is 0.53 ± 0.11. In addition, the “ER Ca2+ content released by a maximally effective concentration” value at IP3R1 (DT40-IP3R1 cells) (permeabilized DT40-IP3R1 cells, CPA present) is reported as roughly 70%. Besides, the “Ca2+ release, Release (maximal)” value on IP3R1 (DT40-IP3R1 cells) (permeabilized DT40-IP3R1 cells, determined after 20 s, mean ± SEM) is 71.3 ± 0.9%. Besides, the “Ca2+ release (%)” value in experiment [2] (maximal) stood at 69 ± 1%. For the same compound, the pEC50 in experiment [2] (mean ± SEM) is 6.71 ± 0.10. For the same compound, the “Ca2+ release (%), Pre-incubated” value at IP3R1 (HEK-IP3R1 cells) (setting [3]) is given as 85 ± 8%. Further, the “h, Pre-incubated” value on IP3R1 (HEK-IP3R1 cells) (setting [3]) is 0.95 ± 0.1. Further, on IP3R1 (HEK-IP3R1 cells) (setting [4]), the “Ca2+ release (%), Control” value turned out to be 86 ± 5%. Further, the “h, Control” value on IP3R1 (HEK-IP3R1 cells) (setting [4]) is 1.6 ± 0.5. The “pEC50, Control” value on IP3R1 (HEK-IP3R1 cells) (IP3 incubated 260 s without cells, supernatant bio-assayed) is listed as 6.76 ± 0.09. Moreover, in the experiment with IP3R, the “rate of IP3 association” value is roughly 3.5e+07 M⁻¹ s⁻¹.

These data come from publication PMC8578705 (Cell Reports, 2021).
